# Ends that are not written are not given here.
# Columns and labels:
# [1] = system: primary human osteoblasts; test: Cytotoxicity assay: LDH activity in culture medium; assay type: cell-based; conditions: for LDH activity compared to alginate-coated scaffolds without SIM: 14-day period
# Experimental: Cells from passages 7-9 were seeded on scaffolds at a density of 400.000 cells/ml. […] Scaffolds soaked with culture medium were placed in 48-well culture plates. […] The culture medium was replaced every other day. Collected medium was saved for use in cytotoxicity, alkaline phosphatase (ALP) activity and protein expression assays.
# MC3T3-E1 cells [2] = test: Gene expression of adhesion and osteoblast markers by real-time RT-PCR, cells on alginate hydrogels; assay type: cell-based, mouse; conditions: 50 μg/ml in 2% alginate gel
# Experimental: (§1) The mouse osteoblastic cell line MC3T3-E1 (DSMZ, Braunschweig, Germany) was maintained as previously described (Tiainen H et al., 2011). Before seeding, 24-well culture plates containing crosslinked alginate hydrogels were washed with 750 μl of culture media to remove the excess of CaCl2. After evaluation of the efficiency of cell adhesion on 2% alginate gel using different cell densities, for the final experiments, cells were seeded at a density of 100 000 cells/well. Media was refreshed twice a week. Culture media was collected 24 h after seeding to study cell viability. Cells were harvested at days 14 and 21 to analyze gene expression of adhesion and osteogenic-related markers using real-time RT-PCR. Cultures were routinely observed using light microscopy (Leica DMIRB, Leica Microsystems Wetzlar GmbH, Germany).
# Total RNA was isolated using Tripure® (Roche Diagnostics, Mannheim, Germany), according to the manufacturer's protocol. Total RNA was quantified at 260 nm using a Nanodrop spectrophotometer (NanoDrop Technologies, Wilmington, Del., USA).
# The same amount of RNA (350 ng) was reverse transcribed to cDNA using high capacity RNA-to-cDNA kit (Applied Biosystems, Foster City, Calif.), according to the protocol of the supplier. Aliquots of each cDNA were frozen (−20° C.) until the PCR reactions were carried out.
# Real-time PCR was performed in the Lightcycler 480® (Roche Diagnostics, Mannheim, Germany) using SYBR green detection. Real-time PCR was done for two reference genes (18SrRNA and glyceraldehyde-3-phosphate dehydrogenase (GAPDH)) and ten target genes (integrin alpha 8 (Itga8), integrin beta1 (Itgb1), integrin beta 3 (Itgb3), fibronectin 1 (Fn1), bone morphogenetic protein 2 (Bmp2), collagen type I (Coll-I), bone sialoprotein (Bsp), alkaline phosphatase (Alp), osteocalcin (Oc) and osteopontin (Opn)).
# The primer sequences are detailed in Table 2. Reaction conditions and relative quantification have been done as previously described (Tiainen H et al., 2011).
# [3] = Peptide release profile from 2% alginate hydrogel (fluorescence spectroscopy); assay type: physicochemical
# Experimental: To study the peptide release profile, P2 was labeled with FITC. The release of peptide contained into the 2% alginate hydrogel (50 μg/ml) was quantified by fluorescence spectroscopy. First, alginate hydrogels were washed with culture media to remove the excess of CaCl2. Then, 750 μl of cell culture media were added onto peptide loaded alginate hydrogel. The samples were incubated at 37° C. and 5% CO2 for 21 days and cell culture media was changed twice a week. At prefixed time points (24 h, 4 d, 7 d, 11 d, 14 d, 18 d and 21 d), supernatants were collected and analyzed by fluorescence spectroscopy (λ ex 490 nm and λ em 525 nm) to determine the amount of peptide released to the media. The amount of peptide released during the washing step was also measured. The experiment was performed three times, and each sample analyzed in triplicate.
# Relative fluorescence units were correlated with the amount of peptide released using a linear standard curve for each time point.
# MC3T3-E1 cells [4] = test: Cell viability: LDH activity in culture media, cells on alginate hydrogels; assay type: cell-based, mouse; conditions: 50 μg/ml in alginate gel
# Experimental: as §1
# The LDH activity determined in the culture media after 24 h was taken as an indicator of membrane leakage or cell lysis. The activity of the cytosolic enzyme was estimated as previously described (Rupert M et al., 2011).
# [5] = Peptide 2 release profile from TiO2 scaffolds coated with 2% alginate gel (UV-Vis); assay type: physicochemical; conditions: P2-alginate-coated scaffolds, distilled water, 37° C.
# Experimental: In order to mimic cell culture conditions, the samples were agitated on an orbital shaker at 200 rpm (IKA® Schüttler MTS 2, Germany) for 6 h at 37° C. and in humidity conditions (using a distilled water container). Then, samples were maintained at 37° C. in a humidified atmosphere for up to 21 days. At prefixed time points (2d, 5d, 7d, 9d, 12d, 14d, 16d, 19d and 21d), distilled water was collected and fresh distilled water was added into each well. Sample absorbances were analyzed by UV-Vis spectrophotometer (PerkinElmer® Lambda 25 UV/Vis Systems, USA) at a wavelength of 206 nm to determine the amount of peptide released. In parallel, TiO2 scaffolds coated with one layer of 2% alginate gel were used as control to subtract absorbance values obtained from degradation products from alginate.
# Relative absorbance units were correlated with the amount of peptide released using a linear standard curve for each time point and the cumulative P2 released was then calculated. The experiment was performed in triplicate.
compound,measurement,setting,value
"CCC(C)(C)C(=O)O[C@H]1C[C@@H](C)C=C2C=C[C@H](C)[C@H](CC[C@@H]3C[C@@H](O)CC(=O)O3)[C@H]21 [SIM, simvastatin]",LDH activity compared to alginate-coated scaffolds without SIM,[1]; scaffolds with 10 nM SIM,Neither of the SIM concentrations caused a significant increase
same,LDH activity compared to alginate-coated scaffolds without SIM,[1]; scaffolds with 10 μM SIM,Neither of the SIM concentrations caused a significant increase
same,"LDH activity, scaffolds with 10 μM SIM compared to scaffolds with 10 nM SIM",[1]; throughout the 14-day period,higher
PHQPMQPQPPVHPMQPLPPQPPLPP (Synthetic biomineralizing peptide) [Peptide P6],ALP mRNA levels compared to control,MC3T3-E1 cells [2]; 14 days,significantly decreased
same,Expression of Opn compared to control,MC3T3-E1 cells [2]; 14 days,decreased significantly
same,Fn1 mRNA compared to control,MC3T3-E1 cells [2]; 14 days,decreased significantly
same,Itgb1 mRNA levels compared to control,MC3T3-E1 cells [2]; 14 days,significantly decreased
same,Itgb3 mRNA compared to control,MC3T3-E1 cells [2]; 14 days,decreased significantly
same,Bmp2 relative mRNA levels,MC3T3-E1 cells [2]; 14 days of treatment,increased significantly
same,ALP mRNA levels compared to control,MC3T3-E1 cells [2]; 21 days,significantly decreased
same,Itgb1 mRNA levels compared to EMD,MC3T3-E1 cells [2]; 21 days,reduced significantly
same,Itgb3 and Fn1 mRNA compared to control,MC3T3-E1 cells [2]; 21 days,no differences
same,Oc mRNA levels compared to control,MC3T3-E1 cells [2]; 21 days,increased
PLVPSQPLVPSQPLVPSQPQPPLPP [Peptide P2],burst release of the peptide during the first 24 h of incubation,"[3]; P2 FITC-labeled, 50 μg/ml in 2% alginate hydrogel, culture media, 37° C.",54.67%
same,total peptide theoretically contained in the hydrogel not released after 21 days,"[3]; P2 FITC-labeled, 2% alginate hydrogel, 21 days",5.6%
same,peptide slowly released up to 11 days,"[3]; P2 FITC-labeled, 2% alginate hydrogel, after the first 24 h, up to 11 days",25.8%
same,loaded peptide released during the washing step,[3]; washing of alginate hydrogels with culture media to remove excess CaCl2,12.7%
same,cell viability compared to EMD,MC3T3-E1 cells [4]; after 24 h,significantly increased
same,Expression of Opn compared to control,MC3T3-E1 cells [2]; 14 days,decreased significantly
same,Fn1 mRNA compared to control,MC3T3-E1 cells [2]; 14 days,decreased significantly
same,Itgb1 mRNA levels compared to control,MC3T3-E1 cells [2]; 14 days,significantly decreased
same,Itgb3 mRNA compared to control,MC3T3-E1 cells [2]; 14 days,decreased significantly
same,ALP mRNA levels compared to control,MC3T3-E1 cells [2]; 21 days,significantly decreased
same,Bmp2 relative mRNA levels compared to EMD,MC3T3-E1 cells [2]; 21 days,decreased
same,Itgb3 and Fn1 mRNA compared to control,MC3T3-E1 cells [2]; 21 days,no differences
same,amount of peptide released after 5 days,[5],9.4 % of the cumulative amount rel
same,burst release of the peptide during the first 2 days of incubation,[5],42.8 % of the cumulative amount of P2 released after 21 days
PLVPSSPLVPCCPLVPCCPSPPLPP (Synthetic biomineralizing peptide) [Peptide P5],toxic effects compared to EMD and to untreated alginate gel,MC3T3-E1 cells [4]; 24 h,significantly lower
same,Oc mRNA levels compared to control,MC3T3-E1 cells [2]; 21 days,increased
same,Expression of Itga8 compared to control,"MC3T3-E1 cells [2]; ""after days of culture"" (number not given)",increased
same,Itga8 expression,MC3T3-E1 cells [2]; after 21 days of treatment,markedly

# Reference: US20150209474A1, “METHOD FOR PRODUCING AN ALGINATE COATED TITANIUM DIOXIDE SCAFFOLD” (CORTICALIS AS, priority 2012, published 2015)
